# Results as given in PubChem BioAssay (NCI).
#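 How tested: cells in 96-well plates exposed to compound for 48 hours at five concentrations. The concentration for 50% growth inhibition is given as GI50. TGI marks complete inhibition of growth.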
# How the values were obtained:
# Assay in all cases: growth of human tumour cells (NCI), 48 h
# 786-0 renal = system: 786-0 renal
# NCI/ADR-RES ovarian = system: NCI/ADR-RES ovarian
# HCT-116 colon = system: HCT-116 colon
# CAKI-1 renal = system: CAKI-1 renal
# HT29 colon = system: HT29 colon
# OVCAR-4 ovarian = system: OVCAR-4 ovarian
# KM12 colon = system: KM12 colon
# TK-10 renal = system: TK-10 renal
# HCT-15 colon = system: HCT-15 colon
# SF-268 CNS = system: SF-268 CNS
Structure (SMILES),GI50 (786-0 renal),TGI (786-0 renal),GI50 (NCI/ADR-RES ovarian),TGI (NCI/ADR-RES ovarian),GI50 (HCT-116 colon),TGI (HCT-116 colon),GI50 (CAKI-1 renal),TGI (CAKI-1 renal),GI50 (HT29 colon),TGI (HT29 colon),GI50 (OVCAR-4 ovarian),TGI (OVCAR-4 ovarian),GI50 (KM12 colon),TGI (KM12 colon),GI50 (TK-10 renal),TGI (TK-10 renal),GI50 (HCT-15 colon),TGI (HCT-15 colon),GI50 (SF-268 CNS),TGI (SF-268 CNS)
CCOP(=O)(OCC)C(NC(c1ccccc1)c1ccccc1)c1ccc(C(C)C)cc1 (stereo not given),5.6 µM,18.9 µM,2.14 µM,7.52 µM,3.08 µM,11.3 µM,3.23 µM,13.1 µM,6.27 µM,42.1 µM,2.57 µM,64.8 µM,4.8 µM,17.2 µM,3.32 µM,14.4 µM,3.22 µM,13.1 µM,7.93 µM,69.5 µM
CCC(C(=O)[C@@H](C)[C@@H](O)[C@H](C)[C@@H]1O[C@@H]([C@@H](CC)C(=O)ONC(=O)c2ccccc2)CC[C@@H]1C)[C@H]1O[C@]2(C=CC(=O)[C@]3(CC[C@@](C)([C@H]4CC[C@](O)(CC)[C@H](C)O4)O3)O2)[C@H](C)C[C@@H]1C (stereo not given in full),0.981 µM,2.26 µM,0.374 µM,2.28 µM,0.36 µM,1.91 µM,1.01 µM,2.71 µM,0.387 µM,2.1 µM,1.07 µM,> 40.1 µM,0.592 µM,2.94 µM,1.1 µM,2.44 µM,0.349 µM,1.61 µM,0.977 µM,3.11 µM
C=C1C(=O)O[C@H]2[C@H]1CC/C(COC(=O)/C=C\C(=O)NCc1ccc(Cn3c(=O)sn(-c4ccc(Cl)cc4)c3=O)cc1)=C\CC[C@@]1(C)O[C@@H]21,0.658 µM,1.39 µM,1.25 µM,5.06 µM,0.144 µM,0.708 µM,0.328 µM,1.03 µM,0.369 µM,1.52 µM,0.685 µM,1.37 µM,0.891 µM,1.82 µM,0.775 µM,1.5 µM,0.331 µM,1.47 µM,0.71 µM,1.43 µM
C=C1C(O)C2CC(C)(C)C(=O)C2=C(CC(C)C)C12CC2 (stereo not given),> 100 µM,> 100 µM,> 100 µM,> 100 µM,> 100 µM,> 100 µM,> 100 µM,> 100 µM,> 100 µM,> 100 µM,> 100 µM,> 100 µM,> 100 µM,> 100 µM,> 100 µM,> 100 µM,> 100 µM,> 100 µM,> 100 µM,> 100 µM
COc1cc(NCCC2CCCCN2)c2ncccc2c1OC (stereo not given),14.5 µM,36.9 µM,22.8 µM,70.5 µM,1.94 µM,3.7 µM,9.56 µM,30.2 µM,13 µM,33.6 µM,1.5 µM,2.86 µM,14.9 µM,33.5 µM,22.1 µM,39.7 µM,21.2 µM,85.5 µM,14.2 µM,41.8 µM
Cc1ccc2c(c1)C(O)(c1ccccc1)CCS2 (stereo not given),–,> 100 µM,–,> 100 µM,–,42.5 µM,–,53.6 µM,–,66 µM,–,> 100 µM,–,54.9 µM,–,78.6 µM,–,42.4 µM,–,> 100 µM
Nc1nc(N)c(-c2ccc(Cl)c(Cl)c2)c(CP(Cl)(Cl)(Cl)Br)n1,14.6 µM,> 100 µM,11.7 µM,> 100 µM,3.52 µM,> 100 µM,14.7 µM,> 100 µM,6.14 µM,> 100 µM,53.8 µM,> 100 µM,14.3 µM,> 100 µM,29.6 µM,> 100 µM,4.26 µM,> 100 µM,7.05 µM,> 100 µM
CCC(=C(c1ccc(OCCN2CCCC2)cc1)c1ccc(OCCN2CCCC2)cc1)c1ccc(Cl)cc1,0.591 µM,1.1 µM,0.599 µM,1.15 µM,0.545 µM,1.05 µM,0.52 µM,0.992 µM,0.511 µM,1.15 µM,0.667 µM,1.43 µM,0.626 µM,1.21 µM,0.628 µM,1.33 µM,0.524 µM,1.04 µM,0.612 µM,1.25 µM
CC(=O)O[C@H]1CC[C@]2(C)C3C(=O)C[C@]4(C)[C@@H](C(C)CCC(=O)O)CC[C@@]4(C)[C@@H]3CC[C@H]2C1(C)C (stereo not given in full),20.7 µM,> 50 µM,16.5 µM,> 50 µM,9.37 µM,20.5 µM,20.8 µM,46.1 µM,18.6 µM,> 50 µM,40.4 µM,> 50 µM,13.9 µM,38.4 µM,21.8 µM,> 50 µM,11.7 µM,46.9 µM,21.1 µM,> 50 µM
O=C(O)c1cc(Cl)cc(Cc2cc(Cl)cc(C(=O)O)c2O)c1O,–,> 100 µM,–,> 100 µM,–,> 100 µM,–,> 100 µM,–,> 100 µM,–,> 100 µM,–,> 100 µM,–,> 100 µM,–,> 100 µM,–,> 100 µM
